Laboratory results from ChEMBL document CHEMBL1127286, “Quantitative structure-activity relationships study of endothelin-1 analogs” (Bioorg Med Chem Lett, 1994).

Key:
[1] = biological target: T1, Endothelin-1 receptor (Rattus norvegicus) (UniProt P26684); test: Concentration required to produce 50% inhibition of binding against ET A receptor obtained from rat thoracic aortic membrane
T1 sequence (whole entry): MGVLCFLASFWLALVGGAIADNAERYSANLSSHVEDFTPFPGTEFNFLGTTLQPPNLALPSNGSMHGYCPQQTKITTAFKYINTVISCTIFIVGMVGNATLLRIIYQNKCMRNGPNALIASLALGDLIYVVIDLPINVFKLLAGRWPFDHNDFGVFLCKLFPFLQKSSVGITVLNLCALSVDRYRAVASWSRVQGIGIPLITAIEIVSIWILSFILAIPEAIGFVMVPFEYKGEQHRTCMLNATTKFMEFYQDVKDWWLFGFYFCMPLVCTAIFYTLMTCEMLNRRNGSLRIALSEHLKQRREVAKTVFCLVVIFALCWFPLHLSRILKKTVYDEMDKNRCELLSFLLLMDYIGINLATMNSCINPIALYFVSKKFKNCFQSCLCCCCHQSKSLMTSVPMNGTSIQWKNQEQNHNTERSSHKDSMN

[2] = biological target: T2, Endothelin receptor type B (Rattus norvegicus) (UniProt P21451); test: Concentration required to produce 50% inhibition of binding against ET B receptor obtained from rat brain membrane
T2 sequence (whole entry): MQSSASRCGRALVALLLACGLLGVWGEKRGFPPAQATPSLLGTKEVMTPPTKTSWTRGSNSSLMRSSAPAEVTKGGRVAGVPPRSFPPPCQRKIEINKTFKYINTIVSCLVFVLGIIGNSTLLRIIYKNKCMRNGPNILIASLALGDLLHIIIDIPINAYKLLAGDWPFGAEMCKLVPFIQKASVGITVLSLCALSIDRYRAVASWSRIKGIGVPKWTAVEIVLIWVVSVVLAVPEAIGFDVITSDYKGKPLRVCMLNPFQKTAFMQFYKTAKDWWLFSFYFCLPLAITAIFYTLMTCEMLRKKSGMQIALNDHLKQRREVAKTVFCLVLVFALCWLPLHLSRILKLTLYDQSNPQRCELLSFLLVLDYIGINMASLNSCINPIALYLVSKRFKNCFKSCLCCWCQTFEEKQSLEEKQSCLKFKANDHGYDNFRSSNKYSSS

In the case of `CC[C@@H](C)[C@H](NC(=O)[C@H](CC(=O)O)NC(=O)[C@H](CC(C)C)NC(=O)[C@H](Cc1c[nH]cn1)NC(=O)[C@H](CS)NC(=O)[C@H](Cc1ccccc1)NC(=O)[C@H](Cc1ccc(O)cc1)NC(=O)[C@@H](NC(=O)[C@H](CS)NC(=O)[C@H](CCC(=O)O)NC(=O)[C@H](CCCCN)NC(=O)[C@H](CC(=O)O)NC(=O)[C@H](CCSC)NC(=O)[C@H](CC(C)C)NC(=O)[C@H](CO)NC(=O)[C@H](CO)NC(=O)[C@H](CS)NC(=O)[C@H](CO)NC(=O)[C@@H](N)CS)C(C)C)C(=O)N[C@@H](C(=O)N[C@@H](Cc1c[nH]c2ccccc12)C(=O)O)c1ccccc1`, the pIC50 [1] is reported as 6.85 and the pIC50 [2] is reported as 8.6.
In the case of `CCC[C@@H](NC(=O)[C@@H](NC(=O)[C@H](CC(=O)O)NC(=O)[C@H](CC(C)C)NC(=O)[C@H](Cc1c[nH]cn1)NC(=O)[C@H](CS)NC(=O)[C@H](Cc1ccccc1)NC(=O)[C@H](Cc1ccc(O)cc1)NC(=O)[C@@H](NC(=O)[C@H](CS)NC(=O)[C@H](CCC(=O)O)NC(=O)[C@H](CCCCN)NC(=O)[C@H](CC(=O)O)NC(=O)[C@H](CCSC)NC(=O)[C@H](CC(C)C)NC(=O)[C@H](CO)NC(=O)[C@H](CO)NC(=O)[C@H](CS)NC(=O)[C@H](CO)NC(=O)[C@@H](N)CS)C(C)C)[C@H](C)CC)C(=O)N[C@@H](Cc1c[nH]c2ccccc12)C(=O)O`, the pIC50 [1] is reported as 7.6 and the pIC50 [2] is reported as 10.
`CC[C@@H](C)[C@H](NC(=O)[C@H](CC(=O)O)NC(=O)[C@H](CC(C)C)NC(=O)[C@H](Cc1c[nH]cn1)NC(=O)[C@H](CS)NC(=O)[C@H](Cc1ccccc1)NC(=O)[C@H](Cc1ccc(O)cc1)NC(=O)[C@@H](NC(=O)[C@H](CS)NC(=O)[C@H](CCC(=O)O)NC(=O)[C@H](CCCCN)NC(=O)[C@H](CC(=O)O)NC(=O)[C@H](CCSC)NC(=O)[C@H](CC(C)C)NC(=O)[C@H](CO)NC(=O)[C@H](CO)NC(=O)[C@H](CS)NC(=O)[C@H](CO)NC(=O)[C@@H](N)CS)C(C)C)C(=O)N[C@H](C(=O)N[C@@H](Cc1c[nH]c2ccccc12)C(=O)O)C1CCCCC1` was tested, and the pIC50 [1] was 9.88 and the pIC50 [2] was 10.
In the case of `CC[C@@H](C)[C@H](NC(=O)[C@H](CC(=O)O)NC(=O)[C@H](CC(C)C)NC(=O)[C@H](Cc1c[nH]cn1)NC(=O)[C@H](CS)NC(=O)[C@H](Cc1ccccc1)NC(=O)[C@H](Cc1ccc(O)cc1)NC(=O)[C@@H](NC(=O)[C@H](CS)NC(=O)[C@H](CCC(=O)O)NC(=O)[C@H](CCCCN)NC(=O)[C@H](CC(=O)O)NC(=O)[C@H](CCSC)NC(=O)[C@H](CC(C)C)NC(=O)[C@H](CO)NC(=O)[C@H](CO)NC(=O)[C@H](CS)NC(=O)[C@H](CO)NC(=O)[C@@H](N)CS)C(C)C)C(=O)N[C@H](C)C(=O)N[C@@H](Cc1c[nH]c2ccccc12)C(=O)O`, the pIC50 [1] is reported as 5.77 and the pIC50 [2] is reported as 7.96.
Compound `CC[C@@H](C)[C@H](NC(=O)[C@H](CC(=O)O)NC(=O)[C@H](CC(C)C)NC(=O)[C@H](Cc1c[nH]cn1)NC(=O)[C@H](CS)NC(=O)[C@H](Cc1ccccc1)NC(=O)[C@H](Cc1ccc(O)cc1)NC(=O)[C@@H](NC(=O)[C@H](CS)NC(=O)[C@H](CCC(=O)O)NC(=O)[C@H](CCCCN)NC(=O)[C@H](CC(=O)O)NC(=O)[C@H](CCSC)NC(=O)[C@H](CC(C)C)NC(=O)[C@H](CO)NC(=O)[C@H](CO)NC(=O)[C@H](CS)NC(=O)[C@H](CO)NC(=O)[C@@H](N)CS)C(C)C)C(=O)N[C@@H](C(=O)N[C@@H](Cc1c[nH]c2ccccc12)C(=O)O)C1CCCCC1` has a pIC50 [1] of 7.04 and a pIC50 [2] of 9.59.
